Reference: paper PMC6152127, “Facile Synthesis of Novel Coumarin Derivatives, Antimicrobial Analysis, Enzyme Assay, Docking Study, ADMET Prediction and Toxicity Study” (Molecules : A Journal of Synthetic Chemistry and Natural …, 2017)
In brackets after ≈: the same amount, converted by molar mass.

Legend:
[1] = test system: HeLa (Human cervical cancer cell line); assay: In vitro cytotoxicity, Sulforhodamine B (SRB) assay; format: cell-based; details: Homo sapiens, HeLa; SRB assay; concentration range 50 to 0.78 μg/mL
Method: To examine the safety of the synthesized compounds, the compounds 4e and 4k were evaluated for their toxicity against the HeLa human cervical cancer cell line by a Sulforhodamine B (SRB) assay using Adriamycin as a standard drug.
In vitro cytotoxicity study of the synthesized compounds 4e and 4k was performed against HeLa (Human cervical cancer cell line) by Sulforhodamine B (SRB) assay using Adriamycin as positive control. The images were captured using an Eclipse Ti-S Inverted Research Microscope (Nikon, Tokyo, Japan). Image processing software used was NIS-Elements.

[2] = test system: Bacillus subtilis (NCIM-2063); assay: In vitro antibacterial activity, MIC; format: cell-based; details: Bacillus subtilis, NCIM2063; average of three readings
Method: (§1) The newly synthesized compounds 4a–o were screened for their in vitro antibacterial activity against the three different bacterial strains. Minimum inhibitory concentration (MIC) values for antibacterial activity were determined by standard agar method using Ampicillin as standard drug. Dimethyl sulfoxide (DMSO) was used as solvent control. […] Compound 4e bearing a 2,4-difluoro group on the phenyl ring was 48 µg/mL for E. coli, 50 µg/mL for B. subtilis and 52 µg/mL for S. aureus.
(§2) All the synthesized compounds were screened for their in vitro antifungal and antibacterial activity. The antibacterial activity was evaluated against three human pathogenic bacterial strains: Escherichia coli (NCIM-2256), Bacillus subtilis (NCIM-2063) and Staphylococcus aureus (NCIM-2901). The antifungal activity was evaluated against seven human pathogenic fungal strains: Candida albicans (NCIM-3471), Candida glabrata (NCYC-388), Fusarium oxysporum (NCIM-1332), Aspergillus fumigates (NCIM-902), Aspergillus flavus (NCIM-539), Aspergillus niger (NCIM-1196) and Cryptococcus neoformans (NCIM-576), which are often encountered clinically. Miconazole was used as standard drug. Minimum inhibitory concentration (MIC) values were determined as per CLSI guidelines. Dimethyl sulfoxide (DMSO) was used as solvent control.
(§3) All the synthesized compounds 4a–o were screened for their in vitro antibacterial activity. Minimum inhibitory concentration (MIC) values were determined using method recommended by National Committee for Clinical Laboratory Standards (NCCLS). In vitro antibacterial activities of the synthesized compounds 4a–o were tested in Nutrient Broth (NB) for bacteria by the two fold serial dilution method. Seeded broth (broth containing microbial spores) was prepared in NB from 24 h old bacterial cultures on nutrient agar (Hi-media) at 37± 1 °C. The bacterial suspension was adjusted with sterile saline to a concentration of 1× 10^−4–10^−5 C.F.U. The synthesized compounds and standard drug Ampicillin were prepared by two fold serial dilutions to obtain the required concentrations of 400, 200, 100, 50, 25, 12.5, 6.25 and 3.13 μg/mL. The tubes were incubated in BOD incubators at 37± 1 °C for bacteria. The MICs were recorded by visual observations after 24 h (for bacteria) of incubation.

[3] = test system: Staphylococcus aureus (NCIM-2901); assay: In vitro antibacterial activity, MIC; format: cell-based; details: Staphylococcus aureus, NCIM2901; average of three readings
Method: as §1, §2, §3

[4] = test system: Escherichia coli (NCIM-2256); assay: In vitro antibacterial activity, MIC; format: cell-based; details: Escherichia coli, NCIM2256; average of three readings
Method: as §1, §2, §3

[5] = test system: Aspergillus flavus (NCIM-539); assay: In vitro antifungal activity, MIC, agar method (CLSI); format: cell-based; details: NCIM539, average of three readings
Method: (§4) The newly synthesized 3-((dicyclohexylamino)(substituted phenyl/heteryl)methyl)-4-hydroxy-2H-chromen-2-one derivatives 4a–o were screened for their in vitro antifungal activity against different yeast and filamentous fungal pathogens. […] Dimethyl sulfoxide (DMSO) was used as solvent control.
as §2, with “Miconazole was used as standard drug.” left out
(§5) Antifungal activity was determined as per CLSI (formerly, NCCLS) guidelines. […] The medium yeast nitrogen base was dissolved in phosphate buffer pH 7 and it was autoclaved at 110 °C for 10 min. With each set a growth control without the antifungal agent and solvent control DMSO were included. The fungal strains were freshly sub cultured on to Sabouraud dextrose agar (SDA) and incubated at 25 °C for 72 h. The fungal cells were suspended in sterile distilled water and diluted to get 10^5 cells/mL. Ten μL of the standardized suspension was inoculated onto the control plates and the media incorporated with the antifungal agents. The inoculated plates were incubated at 25 °C for 48 h. The readings were taken at the end of 48 h and 72 h. The MIC was the lowest concentration of drug preventing growth of macroscopically visible colonies on drug containing plates when there was visible growth on the drug free control plates.

[6] = test system: Candida albicans (NCIM-3471); assay: as above; format: cell-based; details: NCIM3471, average of three readings
Method: as §4
as §2, with “Miconazole was used as standard drug.” left out
as §5

[7] = test system: Fusarium oxysporum (NCIM-1332); assay: as above; format: cell-based; details: NCIM1332, average of three readings
Method: as §4
as §2, with “Miconazole was used as standard drug.” left out
as §5

[8] = test system: Cryptococcus neoformans (NCIM-576); assay: as above; format: cell-based; details: NCIM576, average of three readings
Method: as §4
as §2, with “Miconazole was used as standard drug.” left out
as §5

[9] = test system: Aspergillus niger (NCIM-1196); assay: as above; format: cell-based; details: NCIM1196, average of three readings
Method: as §4
as §2, with “Miconazole was used as standard drug.” left out
as §5

[10] = test system: Candida glabrata (NCYC-388); assay: as above; format: cell-based; details: Nakaseomyces glabratus; average of three readings
Method: as §4
as §2, with “Miconazole was used as standard drug.” left out
as §5

[11] = test system: Aspergillus fumigates (NCIM-902); assay: as above; format: cell-based; details: NCIM902, average of three readings
Method: as §4
as §2, with “Miconazole was used as standard drug.” left out
as §5

SMILES	GI50 [1]	MIC [2]	MIC [3]	MIC [4]	melting point	MIC [5]	MIC [6]	MIC [7]	MIC [8]	MIC [9]	MIC [10]	MIC [11]
COc1cccc2c1C(=O)c1c(O)c3c(c(O)c1C2=O)C[C@@](O)(C(=O)CO)C[C@@H]3O[C@H]1C[C@H](N)[C@H](O)[C@H](C)O1 [Adriamycin, reference compound]	0.5 µg/mL (≈ 0.92 µM)											
O=c1oc2ccccc2c(O)c1C(c1ccco1)N(C1CCCCC1)C1CCCCC1 (centres unmarked) [Compound 4o, 3-((Dicyclohexylamino)(furan-2-yl)methyl)-4-hydroxy-2H-chromen-2-one]		74 µg/mL (≈ 176 µM)	70 µg/mL (≈ 166 µM)	66 µg/mL (≈ 157 µM)	148 to 150 °C	46 µg/mL (≈ 109 µM)	56 µg/mL (≈ 133 µM)	55 µg/mL (≈ 130 µM)	48 µg/mL (≈ 114 µM)	49 µg/mL (≈ 116 µM)	55 µg/mL (≈ 130 µM)	65 µg/mL (≈ 154 µM)
COc1ccc(C(c2c(O)c3ccccc3oc2=O)N(C2CCCCC2)C2CCCCC2)cc1 (centres unmarked) [Compound 4f, 3-((Dicyclohexylamino)(4-methoxyphenyl)methyl)-4-hydroxy-2H-chromen-2-one]		58 µg/mL (≈ 126 µM)	55 µg/mL (≈ 119 µM)	64 µg/mL (≈ 139 µM)	133 to 135 °C	20 µg/mL (≈ 43.3 µM)	43 µg/mL (≈ 93.2 µM)	39 µg/mL (≈ 84.5 µM)	20 µg/mL (≈ 43.3 µM)	22 µg/mL (≈ 47.7 µM)	57 µg/mL (≈ 123 µM)	44 µg/mL (≈ 95.3 µM)
O=c1oc2ccccc2c(O)c1C(c1ccccn1)N(C1CCCCC1)C1CCCCC1 (centres unmarked) [Compound 4m, 3-((Dicyclohexylamino)(pyridin-2-yl)methyl)-4-hydroxy-2H-chromen-2-one]		74 µg/mL (≈ 171 µM)	78 µg/mL (≈ 180 µM)	68 µg/mL (≈ 157 µM)	148 to 150 °C	25 µg/mL (≈ 57.8 µM)	48 µg/mL (≈ 111 µM)	40 µg/mL (≈ 92.5 µM)	28 µg/mL (≈ 64.7 µM)	22 µg/mL (≈ 50.9 µM)	46 µg/mL (≈ 106 µM)	45 µg/mL (≈ 104 µM)
O=c1oc2ccccc2c(O)c1C(c1cccs1)N(C1CCCCC1)C1CCCCC1 (centres unmarked) [Compound 4n, 3-((Dicyclohexylamino)(thiophen-2-yl)methyl)-4-hydroxy-2H-chromen-2-one]		74 µg/mL (≈ 169 µM)	72 µg/mL (≈ 165 µM)	65 µg/mL (≈ 149 µM)	140 to 142 °C	32 µg/mL (≈ 73.1 µM)	55 µg/mL (≈ 126 µM)	58 µg/mL (≈ 133 µM)	33 µg/mL (≈ 75.4 µM)	38 µg/mL (≈ 86.8 µM)	53 µg/mL (≈ 121 µM)	67 µg/mL (≈ 153 µM)
O=c1oc2ccccc2c(O)c1C(c1ccc(O)cc1)N(C1CCCCC1)C1CCCCC1 (centres unmarked) [Compound 4i, 3-((Dicyclohexylamino)(4-hydroxyphenyl)methyl)-4-hydroxy-2H-chromen-2-one]		66 µg/mL (≈ 147 µM)	67 µg/mL (≈ 150 µM)	64 µg/mL (≈ 143 µM)	128 to 130 °C	25 µg/mL (≈ 55.9 µM)	32 µg/mL (≈ 71.5 µM)	35 µg/mL (≈ 78.2 µM)	24 µg/mL (≈ 53.6 µM)	28 µg/mL (≈ 62.6 µM)	35 µg/mL (≈ 78.2 µM)	42 µg/mL (≈ 93.8 µM)
COc1cc(C(c2c(O)c3ccccc3oc2=O)N(C2CCCCC2)C2CCCCC2)cc(OC)c1OC (centres unmarked) [Compound 4h, 3-((Dicyclohexylamino)(3,4,5-trimethoxyphenyl)methyl)-4-hydroxy-2H-chromen-2-one]		68 µg/mL (≈ 130 µM)	66 µg/mL (≈ 127 µM)	68 µg/mL (≈ 130 µM)	136 to 138 °C	38 µg/mL (≈ 72.8 µM)	48 µg/mL (≈ 92 µM)	45 µg/mL (≈ 86.3 µM)	34 µg/mL (≈ 65.2 µM)	34 µg/mL (≈ 65.2 µM)	64 µg/mL (≈ 123 µM)	50 µg/mL (≈ 95.8 µM)
CCOc1cc(C(c2c(O)c3ccccc3oc2=O)N(C2CCCCC2)C2CCCCC2)ccc1O (centres unmarked) [Compound 4l, 3-((Dicyclohexylamino)(3-ethoxy-4-hydroxyphenyl)methyl)-4-hydroxy-2H-chromen-2-one]		54 µg/mL (≈ 110 µM)	54 µg/mL (≈ 110 µM)	56 µg/mL (≈ 114 µM)	140 to 142 °C	15 µg/mL (≈ 30.5 µM)	25 µg/mL (≈ 50.9 µM)	28 µg/mL (≈ 57 µM)	12 µg/mL (≈ 24.4 µM)	12 µg/mL (≈ 24.4 µM)	28 µg/mL (≈ 57 µM)	36 µg/mL (≈ 73.2 µM)
O=c1oc2ccccc2c(O)c1C(c1ccccc1)N(C1CCCCC1)C1CCCCC1 (centres unmarked) [Compound 4a, 3-((Dicyclohexylamino)(phenyl)methyl)-4-hydroxy-2H-chromen-2-one]		68 µg/mL (≈ 158 µM)	65 µg/mL (≈ 151 µM)	70 µg/mL (≈ 162 µM)	112 to 114 °C	38 µg/mL (≈ 88 µM)	66 µg/mL (≈ 153 µM)	55 µg/mL (≈ 127 µM)	54 µg/mL (≈ 125 µM)	43 µg/mL (≈ 99.6 µM)	58 µg/mL (≈ 134 µM)	84 µg/mL (≈ 195 µM)
